Read-outs that look alike come from different tables or passages of the source.
Conditions: human

- bioavailability: ~10%
- bioavailability (inhaled or intranasal): 80 to 90%
Structure (SMILES): Cn1c(=O)c2c(ncn2C)n(C)c1=O [caffeine]

From US20160151275A1, “METHOD AND DEVICES FOR MANUFACTURING AND DELIVERING OF AEROSOLIZED FORMULATIONS” (priority 2014, published 2016)
